Reference: patent US20160311806A1, “4,4'-BIPHENYLDIYL-BIS-(1 H-IMIDAZOLYL) DERIVATIVES AS HEPATITIS HCV INHIBITORS” (BRISTOL-MYERS SQUIBB COMPANY, priority 2013, published 2016)
Read-outs that look alike come from different tables or passages of the source.

Experiments:
[1] = system: HCV 1b genotype; experiment: HCV replicon assay, genotype 1b; assay type: cell-based; details: Hepatitis C virus, read-out: 1b LE (EC50)
Procedure: (§1) An HCV Replicon assay was utilized in the present disclosure, and was prepared, conducted and validated as described in commonly owned PCT/US2006/022197 and in O'Boyle et. al. Antimicrob Agents Chemother. 2005 April; 49(4):1346-53. Assay methods incorporating luciferase reporters have also been used as described (Apath.com).
(§2) HCV-neo replicon cells and replicon cells containing resistance substitutions in the NS5A region were used to test the currently described family of compounds. The compounds were determined to have differing degrees of reduced inhibitory activity on cells containing mutations vs. the corresponding inhibitory potency against wild-type cells. Thus, the compounds of the present disclosure can be effective in inhibiting the function of the HCV NS5A protein and are understood to be as effective in combinations as previously described in application PCT/US2006/022197 and commonly owned WO/04014852. It should be understood that the compounds of the present disclosure can inhibit multiple genotypes of HCV.

[2] = system: HCV 1a; experiment: HCV replicon assay, genotype 1a; assay type: cell-based; details: Hepatitis C virus, read-out: 1a LE (EC50)
Procedure: as §1, §2

SMILES: CC[C@@H]1C[C@@H]([C@H](NC(=O)OC)C(=O)N2[C@@H](C)CC[C@H]2c2ncc(-c3ccc(-c4ccc(-c5cnc([C@@H]6CC[C@H](C)N6C(=O)[C@@H](NC(=O)OC)[C@H]6C[C@@H](C)O[C@H](C7CC7)C6)[nH]5)cc4)cc3)[nH]2)C[C@@H](C)O1 [Example 1, methyl N-[(1S)-1-[(2S,4S,6R)-2-cyclopropyl-6-methyloxan-4-yl]-2-[(2S,5S)-2-{5-[4-(4-{2-[(2S,5S)-1-[(2S)-2-[(2R,4S,6R)-2-ethyl-6-methyloxan-4-yl]-2-[(methoxycarbonyl)amino]acetyl]-5-methylpyrrolidin-2-yl]-1H-imidazol-5-yl}phenyl)phenyl]-1H-imidazol-2-yl}-5-methylpyrrolidin-1-yl]-2-oxoethyl]carbamate]
- EC50 ([1]; given as range class): 2 to 8 pM
- EC50 ([2]; given as range class): 2 to 8 pM

SMILES: COC(=O)N[C@H](C(=O)N1[C@@H](C)CC[C@H]1c1ncc(-c2ccc(-c3ccc(-c4cnc([C@@H]5CC[C@H](C)N5C(=O)[C@@H](NC(=O)OC)[C@H]5C[C@@H](C)O[C@H](C6CC6)C5)[nH]4)cc3)cc2)[nH]1)C(C)C [Example 3, methyl N-[(1S)-1-[(2S,4S,6R)-2-cyclopropyl-6-methyloxan-4-yl]-2-[(2S,5S)-2-{5-[4-(4-{2-[(2S,5S)-1-[(2S)-2-[(methoxycarbonyl)amino]-3-methylbutanoyl]-5-methylpyrrolidin-2-yl]-1H-imidazol-5-yl}phenyl)phenyl]-1H-imidazol-2-yl}-5-methylpyrrolidin-1-yl]-2-oxoethyl]carbamate]
- EC50 [1]: 2.72 pM
- EC50 [2]: 7.18 pM

SMILES: COC(=O)N[C@H](C(=O)N1[C@@H](C)CC[C@H]1c1ncc(-c2ccc(-c3ccc(-c4cnc([C@@H]5CC[C@H](C)N5C(=O)[C@@H](NC(=O)OC)[C@H]5C[C@@H](C)O[C@H](C6CC6)C5)[nH]4)cc3)cc2)[nH]1)C1C[C@@H](C)O[C@H](C)C1 (stereo partly drawn) [Example 5, methyl N-[(1S)-1-[(2S,4S,6R)-2-cyclopropyl-6-methyloxan-4-yl]-2-[(2S,5S)-2-{5-[4-(4-{2-[(2S,5S)-1-[(2S)-2-[(2R,6R)-2,6-dimethyloxan-4-yl]-2-[(methoxycarbonyl)amino]acetyl]-5-methylpyrrolidin-2-yl]-1H-imidazol-5-yl}phenyl)phenyl]-1H-imidazol-2-yl}-5-methylpyrrolidin-1-yl]-2-oxoethyl]carbamate]
- EC50 ([1]; given as range class): 2 to 8 pM
- EC50 ([2]; given as range class): 2 to 8 pM

SMILES: CC[C@@H]1C[C@@H]([C@H](NC(=O)OC)C(=O)N2[C@@H](C)CC[C@H]2c2ncc(-c3ccc(-c4ccc(-c5cnc([C@@H]6CC[C@H](C)N6C(=O)[C@@H](NC(=O)OC)[C@H]6C[C@@H](C)O[C@H](C7CC7)C6)[nH]5)cc4)cc3)[nH]2)CCO1 [Example 2, methyl N-[(1S)-1-[(2S,4S,6R)-2-cyclopropyl-6-methyloxan-4-yl]-2-[(2S,5S)-2-{5-[4-(4-{2-[(2S,5S)-1-[(2S)-2-[(2R,4S)-2-ethyloxan-4-yl]-2-[(methoxycarbonyl)amino]acetyl]-5-methylpyrrolidin-2-yl]-1H-imidazol-5-yl}phenyl)phenyl]-1H-imidazol-2-yl}-5-methylpyrrolidin-1-yl]-2-oxoethyl]carbamate]
- EC50 [1]: 5.76 pM
- EC50 [2]: 4.52 pM

SMILES: COC(=O)N[C@H](C(=O)N1[C@@H](C)CC[C@H]1c1ncc(-c2ccc(-c3ccc(-c4cnc([C@@H]5CC[C@H](C)N5C(=O)[C@H](NC(=O)OC)c5ccccc5)[nH]4)cc3)cc2)[nH]1)[C@H]1C[C@@H](C)O[C@H](C2CC2)C1 [Example 4, methyl N-[(1S)-1-[(2S,4S,6R)-2-cyclopropyl-6-methyloxan-4-yl]-2-[(2S,5S)-2-{5-[4-(4-{2-[(2S,5S)-1-[(2R)-2-[(methoxycarbonyl)amino]-2-phenylacetyl]-5-methylpyrrolidin-2-yl]-1H-imidazol-5-yl}phenyl)phenyl]-1H-imidazol-2-yl}-5-methylpyrrolidin-1-yl]-2-oxoethyl]carbamate]
- EC50 ([1]; given as range class): 2 to 8 pM
- EC50 ([2]; given as range class): 2 to 8 pM
